# Non-standard residues stand in square brackets, D forms with d. Residues, ends and D or L forms follow the SMILES beside them. Gly(octyl) = CCCCCCCC[C@H](N)C(=O)O
# How the values were obtained:
# rats = experiment: GLP-compliant 28-day inhalation toxicity study in rats; assay type: in vivo, rat
# Protocol: In a GLP-compliant 28-day inhalation toxicity study in rats, conducted by Charles River Laboratories Preclinical Services, Tranent, Edinburgh, UK, the formulation described in Example 2 and dilutions thereof as well as the vehicle were administered using the Pari eFlow® XL 30 nebulizer device (Pari Pharma, Starnberg, Germany) for 100 min per day for 28 days, followed by a 2-week recovery period. […] Ten animals were used for the main toxicity study, and 5 additional animals for the recovery phase. Parameters assessed included clinical signs, body weights, food consumption, ophthalmic examination, clinical pathology, gross necropsy findings, organ weights and histopathologic examinations. […] This was associated with reduction in food consumption in treated animals. There was a good recovery in body weight gain during the recovery period between day 28 and 42.
# These changes resolved during the recovery period and were considered a non-adverse, adaptive response to mild irritation. […] This slight increase in macrophage accumulation was considered a nonspecific response to the inhalation of high concentrations of material exceeding the clearance capacity of the lung.
# [1] = biological target: T1, human neutrophil elastase (Homo sapiens, UniProt P08246); experiment: Phase-1b study, active neutrophil elastase in sputum by FRET elastase assay; assay type: in vivo; conditions: CF patients; response appeared independent of dose; returned to baseline at 24 h
# T1 construct: from tissue; host or cells: spontaneous sputum of patients with cystic fibrosis (PBS-soluble fraction)
# T1 sequence (P08246 30-247 limits assumed): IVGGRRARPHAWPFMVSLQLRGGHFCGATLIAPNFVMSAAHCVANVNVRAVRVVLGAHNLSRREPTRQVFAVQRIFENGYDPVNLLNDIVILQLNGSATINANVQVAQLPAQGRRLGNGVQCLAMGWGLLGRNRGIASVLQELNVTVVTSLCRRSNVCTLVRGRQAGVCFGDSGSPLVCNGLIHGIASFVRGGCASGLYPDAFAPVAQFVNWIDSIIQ
# Protocol: The pharmacodynamic effect of ascending single doses of active compound was investigated by evaluation of neutrophil elastase (NE) activity in sputum using FRET (fluorescence resonance energy transfer) assay after PBS aliquotation and freezing.
# On the day of screening, if possible, for baseline assessment of NE activity, on Day −1 as soon as possible after the subject's arrival at the study site for baseline assessment of NE activity, on Day 1 in the period of time between 1 h and 3 h after start of inhalation, and in the morning of Day 2, at approx. 24 h after start of inhalation.
# For evaluation of NE activity in sputum, at first, the weight of the sputum sample was determined and 8 mL cold phosphate-buffered saline (PBS) per gram purified sputum was added. […]
# The NE activity in sputum was evaluated by using a FRET elastase assay adapted from an assay described in Nature Protocols, 2008, 3, 991 (B. Korkmaz, S. Attucci, M. A. Juliano et al.) and validated by MLM Medical Labs GmbH, Mönchengladbach, Germany.
# The assay is based on the reaction of human neutrophil elastase with the substrate 2Abz-Ala-Pro-Glu-Glu-Ile-Met-Arg-Arg-Gln-Tyr(3NO2)—OH (GeneCust Europe S.A., Ellange, Luxembourg, #P160301-SY452824). […] The product of the reaction is detected through fluorescence measurement and the initial reaction velocity is determined. […]
# neutrophil elastase = experiment: Previous intratracheal study in the LPS/fMLP rat model; assay type: in vivo; conditions: intratracheal doses of 0.03 to 3 mg/kg
# Excerpt: The doses of fMLP and the time points were chosen based upon published data (see e.g. S. Yasui, A. Nagai, K. Aoshiba et al., Eur. Respir. J., 1995, 8, 1293; T. Yang, J. Zhang, K. Sun et al., Inflamm. Res. 2012, 61, 563; R. Corteling, D. Wyss, A. Trifilieff, BMC Pharmacology, 2002, 2, 1) and experience at Envigo CRS Limited. The dose selection of the drug was based on a previous intratracheal study at Envigo CRS Limited.
structure (smiles),measurement,setting,value
CCCCCCCC[C@@H]1NC(=O)[C@@H]2CCCN2C(=O)[C@H]2CCCN2C(=O)[C@H](Cc2ccc(O)cc2)NC(=O)[C@H](CCCCN)NC(=O)[C@H](CCC(N)=O)NC(=O)[C@@H]2CCCN2C(=O)[C@@H]2CCCN2C(=O)[C@H]([C@@H](C)CC)NC(=O)[C@H](CO)NC(=O)[C@H](C)NC(=O)[C@H]([C@@H](C)O)NC(=O)[C@H](CCC(=O)O)NC1=O [cyclo(-OctG-Glu-Thr-Ala-Ser-Ile-Pro-Pro-Gln-Lys-Tyr-^DPro-Pro-)] (cyclo([Gly(octyl)]ETASIPPQKY[dP]P)),clinical signs or ophthalmic findings,"rats; rat, 11, 53 and 119 mg/kg/day",no clinical signs or ophthalmic findings
same,histopathology of the larynx,"rats; rat, in vivo",focal minimal squamous metaplasia without cellular atypia of dysplasia
same,organ weights or gross findings,"rats; rat, in vivo",no treatment-related changes
same,clinical pathology findings considered toxicologically relevant,"rats; rat, haematology, coagulation, clinical chemistry, urinalysis",no findings
same,mean concentration of active NE in sputum after single-dose inhalation,[1],strongly decreased
same,efficacy in LPS/fMLP animal model,neutrophil elastase,efficacious

# Source: US11844823B2, “Beta-hairpin peptidomimetic with elastase inhibitory activity and aerosol dosage forms thereof” (POLYPHOR AG, priority 2016, dated 2023)
